Assays:
ABCB10 (ABCB10-V5) [1] = biological target: T1, ABCB10 (ABCB10-V5) (Mus musculus, UniProt Q9JI39); assay: competition with 8-azido-ATP [γ] biotin photolabelling in SMPs, anti-V5 IP; conditions: 50 μM 8-azido-ATP [γ] biotin, 3 mM MgCl2, pH 7.5, on ice; nucleotide binding domain, competitive
T1 construct: full-length cDNA in pEF1alpha-V5-His (V5-His tagged), overexpressed in HEK293; detected at approx. 65 kD; assayed in sub-mitochondrial particles, then anti-V5 immunoprecipitated
T1 sequence (Q9JI39 83-715): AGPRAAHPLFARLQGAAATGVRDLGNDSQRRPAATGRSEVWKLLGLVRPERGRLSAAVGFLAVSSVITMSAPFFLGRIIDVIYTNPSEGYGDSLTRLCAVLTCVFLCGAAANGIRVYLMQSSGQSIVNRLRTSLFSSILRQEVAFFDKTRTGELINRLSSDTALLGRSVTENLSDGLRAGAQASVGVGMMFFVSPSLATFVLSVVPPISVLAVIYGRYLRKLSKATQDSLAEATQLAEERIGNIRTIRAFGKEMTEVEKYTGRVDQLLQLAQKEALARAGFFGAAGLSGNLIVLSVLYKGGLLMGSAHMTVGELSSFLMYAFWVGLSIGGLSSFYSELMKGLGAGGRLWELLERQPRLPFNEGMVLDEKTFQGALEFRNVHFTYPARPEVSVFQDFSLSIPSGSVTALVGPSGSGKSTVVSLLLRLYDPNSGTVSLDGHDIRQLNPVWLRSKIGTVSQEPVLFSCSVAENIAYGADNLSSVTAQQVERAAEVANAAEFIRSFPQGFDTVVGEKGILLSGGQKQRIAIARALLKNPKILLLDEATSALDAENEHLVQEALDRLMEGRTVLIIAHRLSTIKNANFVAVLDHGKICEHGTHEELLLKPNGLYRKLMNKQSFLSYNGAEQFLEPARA

ABCB10 (ABCB10-V5) [2] = biological target: T1, ABCB10 (ABCB10-V5); assay: UV photolabelling of SMPs, anti-V5 IP, ExtrAvidin-HRP blot; conditions: 3 mM MgCl2, pH 7.5, on ice; covalent after UV irradiation; labelled compound; net of binding and hydrolysis

Compound | competition with 8-azido-ATP [γ] biotin photolabelling in SMPs, anti-V5 IP (ABCB10 (ABCB10-V5) [1]) | Km (ABCB10 (ABCB10-V5) [2]) [µM]
Nc1nc2c(ncn2[C@@H]2O[C@H](COP(=O)(O)OP(=O)(O)OP(=O)(O)O)[C@@H](O)[C@H]2O)c(=O)[nH]1 [GTP] | GTP, CTP and TTP could compete with ATP, but their effect was milder | –
Nc1ccn([C@@H]2O[C@H](COP(=O)(O)OP(=O)(O)OP(=O)(O)O)[C@@H](O)[C@H]2O)c(=O)n1 [CTP] | GTP, CTP and TTP could compete with ATP, but their effect was milder | –
Nc1ncnc2c1ncn2[C@@H]1O[C@H](COP(=O)(O)OP(=O)(O)OP(=O)(O)O)[C@@H](O)[C@H]1O [ATP] | Increasing concentrations of unlabeled ATP decreased 8-azido-ATP [γ] biotin photolabeling | –
Cc1cn([C@H]2C[C@H](O)[C@@H](COP(=O)(O)OP(=O)(O)OP(=O)(O)O)O2)c(=O)[nH]c1=O [TTP] | GTP, CTP and TTP could compete with ATP, but their effect was milder | –
8-azido-ATP [γ] biotin | – | 128

Reference: publication PMC4459825, “ATP Binding and Hydrolysis Properties of ABCB10 and Their Regulation by Glutathione” (PLoS ONE, 2015)
